Tests used:
[1] = tested on: Male Sprague-Dawley rats; assay: Oxonic acid-induced hyperuricemia in rats, serum uric acid, NOx and blood pressure; type: in vivo, rat
Experimental: Male Sprague-Dawley rats were housed in standard conditions and fed normal diets. Hyperuricemia was induced with an uricase inhibitor, oxonic acid (OA; 750 mg/kg/day), by gavage, with control rats receiving vehicle. Allopurinol (AP) was used to block hyperuricemia by placing AP in the drinking water (150 mg/L). Rats were divided into four groups: (1) Control, (2) AP only, (3) OA only, and (4) OA+AP. Systolic blood pressure was measured using a tail-cuff sphygmomanometer. The amount of drinking water consumed and changes in body weight were noted. Rats were sacrificed at one and seven days. Serum was analyzed for uric acid concentration and nitrites/nitrates (NOx) by chemiluminescence method. (Prabhakar SS: Inhibition of mesangial iNOS by reduced extracellular pH is associated with uncoupling of NADPH oxidation. Kidney Int 61:2015-2024, 2002). Statistical analysis between subgroups was performed using ANOVA.

[2] = tested on: fructose-fed rats; assay: Treatment of fructose-induced hyperuricemia with allopurinol; type: in vivo, rat; conditions: for body weight: treatment study, p=NS
From the text: Treatment of fructose-induced hyperuricemia with allopurinol: Male Sprague-Dawley rats (150-200 g) were housed in standard conditions and fed control (n=7) or 60% fructose diet (Harlan, Madison, Wis., n=14) for 10 weeks. “Control diet” contains 46% carbohydrate, which is mainly composed of starch whereas the fructose diet contained 60% fructose as the carbohydrate. The caloric content of these diets are 3.1 kcal/g and 3.6 kcal/g, respectively. At 4 weeks, blood sample were obtained at 11 am in the morning after 4 h fasting. Half of the fructose-fed rats were administered allopurinol (AP, 150 mg/L in the drinking water) (Sigma, St. Louis, Mo.) for an additional 6 weeks to lower serum uric acid. Fresh drinking water containing allopurinol was replaced every 2 days. Rats were divided into 3 groups: Control; Fructose (Fr); and Fr+AP. At 10 weeks an oral glucose tolerance test was performed, in which rats were fasted overnight (16 hours), and then administered 1.5 g/kg OGTT (50% glucose solution) by gavage. Blood was sampled at 0, 30, 60, 120 min for blood glucose and serum insulin measurement. Rats were then sacrificed.
(§1) Measurements: Systolic blood pressure was assessed as the mean value of 3 consecutive measurements obtained in the morning using a tail-cuff sphygmomanometer (Visitech BP2000, Visitech Systems, Inc., Apex, N.C.). All animals were preconditioned for blood pressure measurements 1 wk before each experiment. Serum uric acid was measured by uricase method. Blood glucose was measured with the ONE TOUCH system (Johnson&Johnson, Milpitas, Calif.). Rat insulin was measured by ELISA (Crystal Chem. Inc., Chicago, Ill.). Insulin sensitivity index was calculated using the formula of Matsuda and DeFronzo (10,000/square root of [fasting glucose×fasting insulin]×[mean glucose×mean insulin during OGTT]), which is highly correlated (r=0.73, p<0.0001) with rate of whole-body glucose disposal during the euglycemic insulin clamp (Matsuda M and DeFronzo R A, Insulin sensitivity indices obtained from oral glucose tolerance testing: comparison with the euglycemic insulin clamp, Diabetes Care 22: 1462-1470, 1999). Serum lipids were measured with an autoanalyzer (VETAce, Alfa Wassermann Inc, West Caldwell, N.J.) or Triglyceride-SL assay kit (Diagnostic chemicals Limited, Charlottetown, PE, Canada).
(§2) Statistical analysis. All values presented are expressed as mean±SD and analyzed by one-way analysis of variance (ANOVA) or by unpaired Student's t test. Significance was defined as p<0.05.

[3] = tested on: fructose-fed rats; assay: Prevention of fructose-induced hyperuricemia with allopurinol; type: in vivo, rat
Experimental: […] Three groups (control, Fr, and Fr+AP; n=8 each) were designed for this prevention study. Body weight was measured every 2 weeks. Food consumption was measured for 3 days at 8 weeks.
as §1, §2

[4] = tested on: fructose fed rats; assay: 60% dextrose vs 60% fructose diet, pair-fed, lowering uric acid with benzbromarone; type: in vivo, rat; conditions: 4 weeks
Experimental: Comparison between 60% dextrose and 60% fructose on the development of metabolic syndrome and the effect of lowering uric acid with Benzbromarone: Rats were pair-fed with 60% dextrose diet or 60% fructose diet for 4 weeks, which are isocaloric. […] At 4 weeks, total food intake per animal was calculated from the food left over. Total food intake is the subtraction of the left-over food from total administered food (1425 g/rat/28days). In addition to the above two groups, a third group of fructose fed rats were administered BZ. Body weight was measured weekly. At 4 weeks, after 5 h fasting, insulin, triglyceride and uric acid were measured. All protocols were approved by the Animal Care Committee of the University of Florida.
as §1

[5] = tested on: cultured bovine endothelial cells; conditions: cited from earlier work
[6] = tested on: Rat Aortic Artery (AA) segments; assay: Acetylcholine-induced vasorelaxation of rat aortic artery segments; conditions: uric acid 0-15 mg/dl; acetylcholine 5 μM; U-46619 0.5 μM
Experimental: Vasorelaxation of rat Aortic Artery (AA) segments: Rat AA segments (1-0.5 mm diameter×3-4 mm length) were isolated from the 2- to 3- month-old rats, AA segments were suspended in individual organ chambers (Radnoti Four-Unit Tissue Bath System) with 5 ml in Earl's solution, oxygenated with 95% O2 and 5% CO2 at 37° C. After 1 hr equilibration of resting force of 1.5 g, vascular smooth muscle cell or endothelium integrity in this AA segment was confirmed by monitoring 0.5 μM U-46619 (a thromboxane A2 mimetic, sigma)-mediated AA contraction or acetylcholine (5 μM)-mediated vasodilation, respectively. After washing several times, the segments were incubated with various concentration of uric acid (0-15 mg/dl ) in organ bath chamber for 30 min. Stable construction was induced by 0.5 μM U-46619 for 10 min prior to acetylcholine-induced vasorelaxation. The vascular tensions were continuously monitored with an isometric force transducer (Harvard Apparatus, Holliston, Mass.). To standardize the data, U-46619-induced stable increase in vascular tone was set as 100%.

[7] = tested on: endothelial function; conditions: infusion into forearm vein, immediately after infusion; cited from earlier work
[8] = tested on: diabetic C57BL6 and eNOS KO mice; assay: Streptozotocin diabetic C57BL6 and eNOS KO mice with insulin treatment; type: in vivo, mouse
Experimental: Experiments were performed following protocol approval by the Animal Care and Use Committee of the University of Florida (IACUC). C57B1/6J mice (C57BL6) and C57BL/6JNos3tm1Unc (eNOS KO mice) (Jackson Laboratory, Bar Harbor, Me.) aged 8 weeks were rendered diabetic with intraperitoneal injections of streptozotocin (STZ) (100 mg/kg/day for 2 consecutive days) freshly dissolved in 0.1M citrate buffer (pH 4.5). Development of diabetes (defined by blood glucose greater than 250 mg/dL) was verified 1 week after the first STZ injection with ONE TOUCH system (Johnson & Johnson, Milpitas, Calif.). For blood sugar control, a single insulin pellet (Linshin Canada Inc, Ontario, Canada) was implanted subcutaneously for 5 months. Blood glucose was monitored every 2 weeks and if the fasting blood glucose was >200 mg/dl, an additional insulin pellet was inserted. Mice were housed in the animal care facility with 12-hour light/dark cycle and allowed free access to food and water. Body weight was recorded monthly. At 3 and 5 months, mice were euthanized for histological analysis. A total of 6 groups were examined with 10 mice for each group at starting points. Non-diabetic (non-DM), diabetic (DM), and diabetic mice (C57BL6 and eNOS KO) with insulin treatment (DMIns) were examined. Systolic blood pressure was assessed as the mean value of 5-10 consecutive measurements obtained in the morning using a tail-cuff sphygmomanometer (Visitech BP2000, Visitech Systems, Inc., Apex, N.C.). BUN was measured by BUN assay (Diagnostic chemicals limited, PE, Canada). Urine in bladder was obtained for urinary albumin excretion at sacrifice. Albumin-to-Creatinine ratio was measured with Albuwell M (Exocell Inc., Philadelphia, Pa.) and Liquid Creatinine Assay (Bioquant, San Diego, Calif.), respectively.
Kidneys were fixed in Fekete's fixative (mixture of ethanol, distilled water, 37% formalin and glacial acetic acid), and embedded in paraffin. 2-μm sections were stained with the periodic acid-Schiff reagent (PAS) or the periodic acid-methenamine silver (PAM) and counterstained with hematoxylin. Indirect immunoperoxidase staining was performed using antibodies to the endothelial antigen, thrombomodulin (TM) (Yuzawa Y, Brentjens J R, Brett J, Caldwell P R, Esposito C, Fukatsu A, Godman G, Stern D, Andres G: Antibody-mediated redistribution and shedding of endothelial antigens in the rabbit. J Immunol 150: 5633-5646, 1993) or CD34 (BD Pharmingen, San Jose, Calif.) (Fina L, Molgaard H V, Robertson D, Bradley N J, Monaghan P, Delia D, Sutherland D R, Baker M A, Greaves M F: Expression of the CD34 gene in vascular endothelial cells. Blood 75: 2417-2426, 1990), and to vascular smooth muscle cells with anti-smooth muscle actin (Abcam, Cambridge, Mass.). To detect endothelial cell proliferation, double immunostaining was performed with an antibody to the […], Ki67 (Abcam, Cambridge, Mass.) and thrombomodulin. Color was developed using DAB as a chromogen. In double staining, Bjoran Purple (BioCare Medical, Concord, Calif.) was used for thrombomodulin.
All quantifications were performed in a blinded fashion. Using coronal sections of the kidney, all glomeruli (100-200 of glomeruli per each animal) were examined. Glomerular mesangial expansion, mesangiolysis, and nodular lesions were evaluated. The percentage of mesangiolysis was calculated as the number of glomeruli with mesangiolysis divided by that of total glomeruli. Arteriolar morphology was assessed by indirect peroxidase immunostaining for alpha-smooth muscle actin. […] Afferent arteriolar wall thickness was measured by computer image analysis. For each arteriole, the outline of the vessel and its internal lumen (excluding the endothelium) were generated by using computer analysis to calculate the total wall area (outline-inline) in a minimum of 12 arterioles. Vessels that were cross-sectioned or not sectioned transversally, providing an asymmetrical wall, were excluded from the present study. […]

[9] = wildtype and eNOS knockout mice

Oc1ncnc2[nH]ncc12 [Allopurinol, allopurinol]
systolic blood pressure ([1]; 7 days, OA vs OA/AP, p=NS): 147±11 mm Hg | change in NOx concentration ([1]; rats treated with AP alone): did not show a significant change | change in serum UA ([1]; rats treated with AP alone): did not show a significant change | serum uric acid ([2]; AP 150 mg/L drinking water for 6 weeks from week 4 of fructose diet): effective at lowering uric acid | insulin sensitivity (index) ([2]; OGTT at 10 weeks): improved insulin sensitivity | hypertriglyceridemia (serum triglycerides) ([2]; fructose-fed rats): abolished | urinary excretion of uric acid ([2]; fructose-fed rats, 9 weeks): prevented the reduced excretion of uric acid | fasting hyperinsulinemia ([2]; fructose-fed rats, 10 weeks): reversed | systolic blood pressure ([2]; fructose-fed rats, remained higher than control): significantly reduced | postprandial hyperinsulinemia ([2]; oral glucose tolerance test at 10 weeks): partially but significantly lower | body weight ([2]; 10 weeks): 474 ± 37 g | elevation of uric acid by fructose diet ([3]; allopurinol given simultaneously with fructose diet, over the 6 week period): prevented | fasting insulin levels ([3]; compared to fructose-fed rats, 8 weeks): significantly lower | development of hypertriglyceridemia ([3]; prevention study): completely prevented | final weight ([3]; prevention study, 8 weeks): 426 ± 26 g

O=C(CO)[C@@H](O)[C@H](O)[C@H](O)CO [Fr, fructose]
body weight ([2]; 10 weeks): 522 ± 57 g | final weight ([3]; prevention study, 8 weeks): 456 ± 24 g

O=C(O)c1nc(=O)[nH]c(=O)[nH]1 [OA, oxonic acid]
reduction of serum NOx in hyperuricemic rats ([1]; at both 1 day and 7 days, vs control): 40-50%

CCc1oc2ccccc2c1C(=O)c1cc(Br)c(O)c(Br)c1 [benzbromarone, Benzbromarone]
hyperinsulinemia [4]: significantly improved | hypertriglyceridemia [4]: significantly improved | hyperuricemia [4]: significantly improved

O=c1[nH]c(=O)c2[nH]c(=O)[nH]c2[nH]1 [uric acid]
NO levels [5]: potently reduce NO levels | vasorelaxation of aortic arterial rings in response to acetylcholine [6]: dose-dependently blocked | endothelial function measured by brachial artery reactivity [7]: does not impair endothelial function

insulin
development of mesangial expansion ([8]; 3 and 5 months): blocked | development of mesangiolysis ([8]; 3 and 5 months): blocked | development of the nodular lesions ([8]; 3 and 5 months): blocked | blood glucose levels ([8]; both wildtype and eNOS knockout mice): significant improvements | up-regulation of VEGF mRNA expression ([8]; diabetic C57BL6 and eNOS KO mice, whole kidney): blocked | increase in inner lumen size of afferent arteriole ([8]; diabetic eNOS KO mice): blocked | increase in endothelial cell proliferation and number ([8]; diabetic mice, renal cortex): largely corrected | blood pressure ([8]; eNOS knockout mice): significantly improved | survival ([8]; eNOS knockout mice, 5 months): significantly improved | development of proteinuria [8, 9]: prevented | development of renal dysfunction [8, 9]: prevented | development of renal hypertrophy [8, 9]: prevented

Reference: patent publication US9155740B2, “Compositions and methods for treatment and prevention of hyperuricemia related health consequences” (priority 2004, dated 2015)
